Among the test systems are ACHN renal; SF-539 CNS; OVCAR-8 ovarian; OVCAR-4 ovarian; SF-295 CNS; 786-0 renal; A498 renal; HCT-116 colon; LOX IMVI melanoma; UACC-257 melanoma.
Common to all, as to experiment: NCI-60 cell line screen, 48 h

From PubChem BioAssay (NCI) come the findings set out here.

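Cultured in 96-well plates, cells were exposed to test compound for 48 hours across five concentrations. The concentration for full growth arrest is given as TGI.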

As to `CCOC(=O)/C(C(N)=O)=C(/O)c1cnccn1`, the TGI with ACHN renal, in the assay with SF-539 CNS, in the assay with OVCAR-8 ovarian, with OVCAR-4 ovarian, with SF-295 CNS and in the assay with 786-0 renal was above 100 µM throughout. Besides, the TGI in the assay on A498 renal, in the assay on HCT-116 colon, with LOX IMVI melanoma and with UACC-257 melanoma was above 100 µM each time.

`O=C(O)Cn1cnc2c(=O)[nH]c(Nc3ccccc3)nc21`: the TGI in the assay on ACHN renal, in the assay with SF-539 CNS, in the assay with OVCAR-8 ovarian, with OVCAR-4 ovarian, in the assay on SF-295 CNS and with 786-0 renal was above 100 µM each time. The TGI in the assay on A498 renal, with HCT-116 colon, in the assay on LOX IMVI melanoma and in the assay with UACC-257 melanoma was above 100 µM throughout.

As to `CC(=O)[C@H]1CC[C@@H]2[C@]1(C)CC=C1[C@]23C=C[C@]2(C[C@@H](O)CC[C@]12C)C(C(=O)O)C3C(=O)O` (stereo not given in full), the TGI in the assay on ACHN renal, in the assay on SF-539 CNS, in the assay with OVCAR-8 ovarian, with OVCAR-4 ovarian, in the assay on SF-295 CNS and with 786-0 renal was above 100 µM each time. The TGI in the assay on A498 renal, with HCT-116 colon, in the assay on LOX IMVI melanoma and in the assay on UACC-257 melanoma was above 100 µM in each case.

In the case of `COc1ccc(/C=N/NC(=O)NCCNCCO)cc1`, the TGI in the assay with ACHN renal, in the assay with SF-539 CNS, with OVCAR-8 ovarian, in the assay on OVCAR-4 ovarian, in the assay on SF-295 CNS and with 786-0 renal was above 100 µM throughout. Moreover, the TGI in the assay on A498 renal, with HCT-116 colon, in the assay on LOX IMVI melanoma and in the assay on UACC-257 melanoma was above 100 µM throughout.

On to `O=C(NC1CCCCC1)N1CCNC1=S`, for which the TGI with ACHN renal, in the assay with SF-539 CNS, with OVCAR-8 ovarian, in the assay with OVCAR-4 ovarian, in the assay on SF-295 CNS and in the assay on 786-0 renal was above 100 µM in each case. Besides, the TGI in the assay on A498 renal, in the assay with HCT-116 colon, with LOX IMVI melanoma and in the assay on UACC-257 melanoma was above 100 µM each time.

Regarding `CC(C)C(C=O)C(O)(C(F)(F)F)C(F)(F)F` (stereo not given), the TGI with ACHN renal, in the assay with SF-539 CNS, with OVCAR-8 ovarian, in the assay with OVCAR-4 ovarian, in the assay with SF-295 CNS and in the assay on 786-0 renal was above 100 µM in each case. In addition, the TGI in the assay on A498 renal, with HCT-116 colon, in the assay on LOX IMVI melanoma and in the assay with UACC-257 melanoma was above 100 µM throughout.

Consider `COC(=O)[C@@]1(Cc2ccc(OC(C)=O)cc2)Cc2cc3ccccc3n2N1`, for which the TGI in the assay with ACHN renal, in the assay with SF-539 CNS, in the assay on OVCAR-8 ovarian, in the assay with OVCAR-4 ovarian, in the assay on SF-295 CNS and with 786-0 renal was above 100 µM in each case. In addition, the TGI in the assay with A498 renal was 87.3 µM; in the assay with HCT-116 colon it was above 100 µM; with LOX IMVI melanoma, above 100 µM; in the assay on UACC-257 melanoma it was 52.1 µM.
